These results are taken from US11090304B2 (Amgen Inc., priority 2018, dated 2021).

The structures appear in SMILES notation.

The target in the test is GDP-bound KRAS protein (aa 1-169), containing both G12C and C118A amino acid substitutions (Homo sapiens, UniProt P01116, C118A/G12C). In words: Coupled nucleotide exchange assay (SOS-mediated, AlphaScreen). In kind it is biochemical. The following applies: 5 min compound pre-incubation.
Chain of GDP-bound KRAS protein (aa 1-169), containing both G12C and C118A amino acid substitutions (P01116 1-169 isoform P01116-2 G12C/C118A): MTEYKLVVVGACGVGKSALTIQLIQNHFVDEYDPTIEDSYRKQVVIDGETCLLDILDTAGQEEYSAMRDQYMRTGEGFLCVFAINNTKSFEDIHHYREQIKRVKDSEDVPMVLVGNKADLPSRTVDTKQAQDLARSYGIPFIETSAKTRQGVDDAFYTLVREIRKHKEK
With `C=CC(=O)N1CCN(c2nc(=O)n(-c3ccccc3C(C)(C)C)c3nc(-c4c(O)cccc4F)c(F)cc23)[C@@H](C)C1` (single isomer, unassigned) [Example 58-1-1], the “Coupled exchange IC50 (5 min)” value is listed as 5.95 | nda μM.
To `C=CC(=O)N1CCN(c2nc(=O)n(-c3c(C)ccnc3C(C)C)c3nc(-c4ccccc4F)c(F)cc23)[C@@H](C)C1` (single isomer, unassigned) [Example 58-4-2] belongs 4.82 | nda μM; to `C=CC(=O)N1CCN(c2nc(=O)n(-c3c(C)ccnc3C(C)C)c3nc(-c4cc(O)ccc4F)c(F)cc23)[C@@H](C)C1` (single isomer, unassigned) [Example 58-5-1], 5.6 | nda μM; to `C=CC(=O)N1CCN(c2nc(=O)n(-c3c(C)ccnc3C(C)C)c3nc(-c4cc(N)ccc4F)c(F)cc23)[C@@H](C)C1` (single isomer, unassigned) [Example 58-6-1], 8.63 | nda μM.
To `C=CC(=O)N1CCN(c2nc(=O)n(-c3c(C)ccnc3C(C)C)c3nc(-c4cc(N)ccc4Cl)c(F)cc23)[C@@H](C)C1` (single isomer, unassigned) [Example 58-8-2] belongs 2.02 | nda μM.
The same measure for `C=CC(=O)N1CCN(c2nc(=O)n(-c3c(C)ccnc3C(C)C)c3nc(-c4ccc(F)cc4F)c(F)cc23)[C@@H](C)C1` (single isomer, unassigned) [Example 58-10-2]: 6.31 | nda μM; for `C=CC(=O)N1CCN(c2nc(=O)n(-c3c(C)cccc3C3CC3)c3nc(-c4c(O)cccc4F)c(F)cc23)[C@@H](C)C1` (single isomer, unassigned) [Example 58-13-1]: 1.56 | nda μM; for `C=CC(=O)N1CCN(c2nc(=O)n(-c3c(C(C)C)ccnc3C)c3nc(-c4ccccc4F)c(F)cc23)[C@@H](C)C1` (single isomer, unassigned) [Example 58-16-1]: 11.6 | nda μM.
For `C=CC(=O)N1CCN(c2nc(=O)n(-c3ccccc3C(C)(C)C)c3nc(-c4ccccc4F)c(F)cc23)[C@@H](C)C1` (single isomer, unassigned) [Example 58-17-1], the “Coupled exchange IC50 (5 min)” value is 33.2 | nda μM.
Regarding `C=CC(=O)N1CCN(c2nc(=O)n(-c3c(C4CC4)ccnc3C)c3nc(-c4c(O)cccc4F)c(F)cc23)[C@@H](C)C1` (single isomer, unassigned) [Example 58-19-1], the “Coupled exchange IC50 (5 min)” value is recorded as 4.06 | nda μM.
Take `C=CC(=O)N1CCN(c2nc(=O)n(-c3c(C4CC4)ccnc3C)c3nc(-c4ccccc4F)c(F)cc23)[C@@H](C)C1` (single isomer, unassigned) [Example 58-20-1]: the “Coupled exchange IC50 (5 min)” value was 16.2 | nda μM.
In the case of `C=CC(=O)N1CCN(c2nc(=O)n(-c3ccccc3C3(C(F)(F)F)CC3)c3nc(-c4c(O)cccc4F)c(F)cc23)[C@@H](C)C1` (single isomer, unassigned) [Example 59-1-1], the “Coupled exchange IC50 (5 min)” value was 11.8 | nda μM.
To `C=CC(=O)N1CCN(c2nc(=O)n(-c3ccccc3C3(C(F)(F)F)CC3)c3nc(-c4c(O)cccc4F)c(F)cc23)[C@@H](C)C1` (single isomer, unassigned) [Example 59-1-2] belongs 1.1 | nda μM.
The same measure for `C=CC(=O)N1CCN(c2nc(=O)n(-c3c(F)cccc3C(C)C)c3nc(-c4c(O)cccc4F)c(F)cc23)[C@@H](C)C1` (single isomer, unassigned) [Example 59-2-2]: 7.49 | nda μM.
To `C=CC(=O)N1CCN(c2nc(=O)n(-c3c(F)cccc3C(C)C)c3nc(-c4ccccc4F)c(F)cc23)[C@@H](C)C1` (single isomer, unassigned) [Example 59-3-2] belongs 33 | nda μM.
Take `C=CC(=O)N1CCN(c2nc(=O)n(-c3c(C#N)cccc3C(C)C)c3nc(-c4ccccc4F)c(Cl)cc23)[C@@H](C)C1` (single isomer, unassigned) [Example 60-20-1]: the “Coupled exchange IC50 (5 min)” value is on record as 10.2 | nda μM.
The same measure for `C=CC(=O)N1CCN(c2nc(=O)n(-c3c(C)ncnc3C3CC3)c3nc(-c4ccccc4F)c(Cl)cc23)[C@@H](C)C1` (single isomer, unassigned) [Example 60-30-1]: 1.26 | nda μM.
The same measure for `C=CC(=O)N1CCN(c2nc(=O)n(-c3c(C)cccc3C(C)C)c3nc(-c4c(O)cccc4F)c(F)cc23)C(C)(C)C1` (single isomer, unassigned) [Example 63-4]: 1.15 | nda μM; for `C=CC(=O)N1CCN(c2nc(=O)n(-c3ccccc3C(C)C)c3nc(-c4cccs4)c(Cl)cc23)[C@@H](C)C1` (single isomer, unassigned) [Example 67-4-1]: 7.34 | nda μM; for `C=CC(=O)N1CCN(c2nc(=O)n(-c3ccccc3C(C)C)c3nc(-c4cccs4)c(Cl)cc23)[C@@H](C)C1` (single isomer, unassigned) [Example 67-4-2]: 1.91 | nda μM.
To `C=CC(=O)N1CCN(c2nc(=O)n(-c3c(C)cccc3C(C)C)c3nc(-c4c(C)ccc5[nH]ncc45)c(F)cc23)[C@@H](C)C1` (single isomer, unassigned) [Example 68-2-1] belongs 5.29 | nda μM.
As for `C=CC(=O)N1CCN(c2nc(=O)n(-c3ccccc3C(C)C)c3nc(N4CCCCC4)c(Cl)cc23)[C@@H](C)C1` (single isomer, unassigned) [Example 69-1-1], the “Coupled exchange IC50 (5 min)” value was 44.1 | nda μM.
To `C=CC(=O)N1CCN(c2nc(=O)n(-c3c(C)cccc3C(C)C)c3nc(-c4nc(N)ccc4Cl)c(F)cc23)[C@@H](C)C1` (single isomer, unassigned) [Example 71-1-2] belongs 4.89 | nda μM; to `C=CC(=O)N1CCN(c2nc(=O)n(-c3c(C)cccc3C(C)C)c3nc(-c4nc(N)cc5ccccc45)c(F)cc23)[C@@H](C)C1` (single isomer, unassigned) [Example 71-2-1], 8.7 | nda μM; to `C=CC(=O)N1CCN(c2nc(=O)n(-c3c(C)cccc3C(C)C)c3nc(-c4nc(N)cc5ccccc45)c(F)cc23)[C@@H](C)C1` (single isomer, unassigned) [Example 71-2-2], 1.06 | nda μM.
For `C=CC(=O)N1CCN(c2nc(=O)n(-c3ccccc3C(C)C)c3nc(-c4ccccc4F)c(C)cc23)[C@@H](C)C1` (single isomer, unassigned) [Example 74-1-1], the “Coupled exchange IC50 (5 min)” value is on record as 2.16 | nda μM.
To `C=CC(=O)N1CCN(c2nc(=O)n(-c3c(C)ccnc3C(C)C)c3nc(-c4c(O)cccc4F)c(C)cc23)[C@@H](C)C1` (single isomer, unassigned) [Example 74-3-2] belongs 1.12 | nda μM; to `C=CC(=O)NC1CN(c2nc(=O)n(-c3c(C)ccnc3C(C)C)c3nc(-c4c(O)cccc4F)c(F)cc23)C1` (single isomer, unassigned) [Example 75-6, (M)-N-(1-(6-fluoro-7-(2-fluoro-6-hydroxyphenyl)-1-(4-methyl-2-(2-propanyl)-3-pyridinyl)-2-oxo-1,2-dihydropyrido[2,3-d]pyrimidin-4-yl)-3-azetidinyl)-2-propenamide], 85 | nda μM; to `C=CC(=O)N1CCN(c2nc(=O)n(-c3c(C)ccnc3C(C)C)c3nc(-c4c(O)cccc4F)c(F)cc23)[C@H](C(F)F)C1` (single isomer, unassigned) [Example 75-9-1, (M)-4-((2S or 2R)-2-(difluoromethyl)-4-(2-propenoyl)-1-piperazinyl)-6-fluoro-7-(2-fluoro-6-hydroxyphenyl)-1-(4-methyl-2-(2-propanyl)-3-pyridinyl)pyrido[2,3-d]pyrimidin-2(1H)-one], 1.87 | nda μM.
To `C=CC(=O)N1CCN(c2nc(=O)n(-c3c(C)ccnc3C(C)C)c3nc(-c4ccccc4F)c(Cl)cc23)[C@H](C(F)F)C1` (single isomer, unassigned) [Example 78-3-1] belongs 1.19 | nda μM.
With `C=CC(=O)N1CCN(c2nc(=O)n(-c3c(C)ccnc3C(C)C)c3nc(-c4ccccc4F)c(Cl)cc23)C2(CC2)C1` (single isomer, unassigned) [Example 78-4, (M)-6-chloro-7-(2-fluorophenyl)-1-(4-methyl-2-(2-propanyl)-3-pyridinyl)-4-(7-(2-propenoyl)-4,7-diazaspiro[2.5]octan-4-yl)pyrido[2,3-d]pyrimidin-2(1H)-one], the “Coupled exchange IC50 (5 min)” value is given as 30.3 | nda μM.
The same measure for `C=CC(=O)N1CCN(c2nc(=O)n(-c3c(C)ccnc3C(C)C)c3nc(-c4ccccc4F)c(Cl)cc23)[C@H](C(F)(F)F)C1` (single isomer, unassigned) [Example 78-9-1]: 1.26 | nda μM; for `C=CC(=O)N1CCN(c2nc(=O)n(-c3c(C)ccnc3C(C)C)c3nc(-c4ccccc4F)c(Cl)cc23)[C@@H](C(F)(F)F)C1` (single isomer, unassigned) [Example 78-9-2]: 0.423 | nda μM; for `C=CC(=O)NCCNc1nc(=O)n(-c2c(C)ccnc2C(C)C)c2nc(-c3ccccc3F)c(Cl)cc12` (single isomer, unassigned) [Example 78-12, (M)-N-(2-((6-chloro-7-(2-fluorophenyl)-1-(4-methyl-2-(2-propanyl)-3-pyridinyl)-2-oxo-1,2-dihydropyrido[2,3-d]pyrimidin-4-yl)amino)ethyl)-2-propenamide]: 15.4 | nda μM.
As to `C=CC(=O)N1C[C@H]2CC[C@@H](C1)N2c1nc(=O)n(-c2c(C)ccnc2C(C)C)c2nc(-c3ccccc3F)c(Cl)cc12` (single isomer, unassigned) [Example 78-13, (M)-6-chloro-7-(2-fluorophenyl)-1-(4-methyl-2-(2-propanyl)-3-pyridinyl)-4-(3-(2-propenoyl)-3,8-diazabicyclo[3.2.1]octan-8-yl)pyrido[2,3-d]pyrimidin-2(1H)-one], the “Coupled exchange IC50 (5 min)” value is 2.22 | nda μM.
To `C=CC(=O)N1C[C@@H](C)N(c2nc(=O)n(-c3c(C)ccnc3C(C)C)c3nc(-c4ccccc4F)c(Cl)cc23)[C@H](C)C1` (single isomer, unassigned) [Example 78-16] belongs 16.6 | nda μM.
